Measured values as given in publication PMC5559489 (Scientific Reports, 2017).

What was measured:
[1] = target: seasonal influenza A(H3N2) virus neuraminidase (NA) (Influenza A virus, UniProt V9SU56); assay type: biochemical
[2] = target: seasonal influenza B virus neuraminidase (NA) (Influenza B virus, UniProt C0LT34); assay type: biochemical

CCOC(=O)C1=C[C@@H](OC(CC)CC)[C@H](NC(C)=O)[C@@H](N)C1 [oseltamivir, Oseltamivir]
susceptibility to oseltamivir (WHO definition) [1]: sensitive | susceptibility to oseltamivir (WHO definition) [2]: sensitive
